The source of these data is ChEMBL document CHEMBL4229332, “Novel multi-target azinesulfonamides of cyclic amine derivatives as potential antipsychotics with pro-social and pro-cognitive effects” (Eur J Med Chem, 2018).

Bounds are passed on as bounds.

Series [1] addresses T1, 5-hydroxytryptamine receptor 2A (Homo sapiens, UniProt P28223). Put plainly: biochemical. The format is cell-based, CHO-K1.
The target of series [2] is T1, 5-hydroxytryptamine receptor 2A. Briefly: Antagonist activity at human 5-HT2AR expressed in HEK293 cells assessed as inhibition of serotonin-induced IP1 accumulation at 10^-6 M by chemiluminescence-based assay. It is filed as functional, cell-based.
Series [3] addresses T2, 5-hydroxytryptamine receptor 1A (Homo sapiens) (UniProt P08908).
T2 sequence (whole entry): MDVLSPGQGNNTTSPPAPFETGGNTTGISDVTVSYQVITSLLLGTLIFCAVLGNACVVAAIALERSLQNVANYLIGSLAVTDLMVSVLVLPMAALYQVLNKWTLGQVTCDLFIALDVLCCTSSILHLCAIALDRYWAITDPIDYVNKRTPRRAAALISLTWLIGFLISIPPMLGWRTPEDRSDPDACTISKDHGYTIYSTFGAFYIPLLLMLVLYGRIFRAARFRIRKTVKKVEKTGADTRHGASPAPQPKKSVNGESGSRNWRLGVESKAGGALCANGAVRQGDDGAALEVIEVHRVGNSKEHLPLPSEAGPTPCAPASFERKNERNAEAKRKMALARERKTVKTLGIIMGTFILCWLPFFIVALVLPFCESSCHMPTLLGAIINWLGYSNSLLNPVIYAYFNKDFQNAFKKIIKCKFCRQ
Briefly: Antagonist activity at human 5-HT1AR expressed in mouse BA/F3 cells assessed as inhibition of serotonin-induced calcium flux at 10^-6 M by fluorimetric method. It is filed as functional, cell-based.

The target of series [4] is T3, 5-hydroxytryptamine receptor 6 (Homo sapiens, UniProt P50406). Briefly: Antagonist activity at human 5-HT6R expressed in CHO-K1 cells assessed as inhibition of serotonin-induced cAMP accumulation at 10^-6 M by chemiluminescence-based assay. It is filed as functional, cell-based. (In general: cAMP levels reflect the balance of adenylyl cyclase and phosphodiesterase activity.)
T3 sequence (P50406 whole entry): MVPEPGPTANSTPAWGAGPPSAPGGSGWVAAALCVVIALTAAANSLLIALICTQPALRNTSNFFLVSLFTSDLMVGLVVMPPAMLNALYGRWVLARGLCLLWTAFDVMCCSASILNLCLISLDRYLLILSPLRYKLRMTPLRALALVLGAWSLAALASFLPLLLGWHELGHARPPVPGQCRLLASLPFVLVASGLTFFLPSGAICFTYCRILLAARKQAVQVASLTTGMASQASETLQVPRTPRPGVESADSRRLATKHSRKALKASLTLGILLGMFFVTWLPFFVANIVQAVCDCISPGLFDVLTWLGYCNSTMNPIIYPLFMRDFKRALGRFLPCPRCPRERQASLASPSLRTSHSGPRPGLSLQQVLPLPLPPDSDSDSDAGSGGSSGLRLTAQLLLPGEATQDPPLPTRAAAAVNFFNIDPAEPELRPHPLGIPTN

Series [5] addresses D(2) dopamine receptor (Homo sapiens) (UniProt P14416). Put plainly: Antagonist activity at human D2LR expressed in CHO-K1 cells assessed as inhibition of dopamine-induced cAMP accumulation at 10^-6 M by chemiluminescence-based assay. The format is functional, cell-based.
Series [6] deals with D(3) dopamine receptor (Homo sapiens) (UniProt P35462). Put plainly: Antagonist activity at human D3R expressed in CHO-K1 cells assessed as inhibition of […] cAMP accumulation at 10^-6 M by chemiluminescence-based assay. The format is functional, cell-based.
Sequence of D(3) dopamine receptor (Homo sapiens) (P35462 whole entry): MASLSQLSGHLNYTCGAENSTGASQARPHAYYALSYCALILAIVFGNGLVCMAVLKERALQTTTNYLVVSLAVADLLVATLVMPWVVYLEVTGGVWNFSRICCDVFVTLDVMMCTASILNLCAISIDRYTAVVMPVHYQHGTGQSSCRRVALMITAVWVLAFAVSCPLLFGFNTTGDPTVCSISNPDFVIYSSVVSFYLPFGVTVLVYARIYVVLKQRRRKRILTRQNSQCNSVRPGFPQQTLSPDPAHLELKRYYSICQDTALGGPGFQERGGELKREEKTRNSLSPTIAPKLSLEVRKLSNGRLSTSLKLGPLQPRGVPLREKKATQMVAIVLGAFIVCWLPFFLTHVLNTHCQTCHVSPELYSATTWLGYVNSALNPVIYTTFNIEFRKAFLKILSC
Series [7] can be described thus: Drug level in Wistar rat plasma at 3 mg/kg, ip measured after 15 mins by LC-MS/MS analysis. The format is ADME, organism-based.
In series [8] the test system is Cavia porcellus. Briefly: Cardiotoxicity in guinea pig assessed as effect on QT interval time at 5 mg/kg, ip measured after 10 mins by ECG analysis (reference value: 127.6 to 131.2 milliseconds). It is filed as toxicity, organism-based. The following applies: in vivo.
The test system of series [9] is Cavia porcellus. Briefly: Cardiotoxicity in guinea pig assessed as effect on QT interval time at 5 mg/kg, ip measured after 40 mins by ECG analysis (reference value: 127.6 to 131.2 milliseconds). The format is toxicity, organism-based. The following applies: in vivo.
Series [10] deals with Cavia porcellus. Briefly: Cardiotoxicity in guinea pig assessed as effect on PR interval time at 5 mg/kg, ip measured after 30 mins by ECG analysis (reference value: 58.8 to 63.8 milliseconds). The format is toxicity, organism-based. The conditions noted are these: in vivo, 0.5 h.
In series [11] the test system is Cavia porcellus. Put plainly: Cardiotoxicity in guinea pig assessed as effect on PR interval time at 5 mg/kg, ip measured after 60 mins by ECG analysis (reference value: 58.8 to 63.8 milliseconds). It is filed as toxicity, organism-based. The following applies: in vivo, 1 h.
The test system of series [12] is Cavia porcellus. Briefly: Cardiotoxicity in guinea pig assessed as effect on QRS interval time at 5 mg/kg, ip measured after 10 mins by ECG analysis (reference value: 26.2 to 31.6 milliseconds). The format is toxicity, organism-based. The following applies: in vivo.
Series [13] concerns Cavia porcellus. Put plainly: Cardiotoxicity in guinea pig assessed as effect on QRS interval time at 5 mg/kg, ip measured after 20 mins by ECG analysis (reference value: 26.2 to 31.6 milliseconds). It is filed as toxicity, organism-based. The following applies: in vivo.
Series [14] relates to Cavia porcellus. Put plainly: Cardiotoxicity in guinea pig assessed as effect on QRS interval time at 5 mg/kg, ip measured after 70 mins by ECG analysis (reference value: 26.2 to 31.6 milliseconds). The conditions noted are these: in vivo. It is filed as toxicity, organism-based.
Series [15] deals with Cavia porcellus. Briefly: Cardiotoxicity in guinea pig assessed as effect on QRS interval time at 5 mg/kg, ip measured after 80 mins by ECG analysis (reference value: 26.2 to 31.6 milliseconds). It is filed as toxicity, organism-based. The following applies: in vivo.
The subject of series [16] is Rattus norvegicus. Put plainly: Cardiotoxicity in Wistar rat assessed as effect on blood pressure at 2 to 5 mg/kg, iv. The format is toxicity, organism-based. The following applies: in vivo.
A further series deals with Cytochrome P450 1A2 (Homo sapiens, UniProt P05177). Put plainly: Inhibition of human supersome CYP1A2 using caffeine as substrate assessed as caffeine 3-N-demethylation after 30 mins by HPLC-UV detection. It is filed as ADME.
Sequence of Cytochrome P450 1A2 (P05177 whole entry): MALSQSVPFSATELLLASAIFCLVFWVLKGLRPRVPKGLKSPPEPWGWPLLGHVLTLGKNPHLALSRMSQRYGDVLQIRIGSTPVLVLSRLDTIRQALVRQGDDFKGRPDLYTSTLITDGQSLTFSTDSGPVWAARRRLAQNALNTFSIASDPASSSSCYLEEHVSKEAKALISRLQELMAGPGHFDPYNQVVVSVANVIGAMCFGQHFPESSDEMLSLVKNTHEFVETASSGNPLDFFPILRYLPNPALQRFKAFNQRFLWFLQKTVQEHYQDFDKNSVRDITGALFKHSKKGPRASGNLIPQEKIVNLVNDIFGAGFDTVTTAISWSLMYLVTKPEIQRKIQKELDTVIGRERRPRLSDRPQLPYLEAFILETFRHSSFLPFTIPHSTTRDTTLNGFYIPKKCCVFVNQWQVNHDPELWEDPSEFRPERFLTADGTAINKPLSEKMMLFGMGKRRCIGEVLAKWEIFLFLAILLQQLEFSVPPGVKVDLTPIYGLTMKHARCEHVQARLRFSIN
A short description of series [17]: Toxicity in ip dosed Sprague-Dawley rat assessed as sedation pretreated for 60 mins followed by PCP addition measured for 30 mins starting 15 min after rat reintroduction to auto-tracks. The following applies: in vivo. The format is organism-based.
Series [18] concerns Rattus norvegicus. Put plainly: Reversal of ketamine-induced cognitive flexibility in ip dosed Sprague-Dawley rat administered 30 mins prior to ketamine administration by attentional set-shifting test. It is filed as functional. The conditions noted are these: read-out: MED.
For series [19], the system named is Rattus norvegicus. Put plainly: Effect on failure incidence during conditioned avoidance response test in Sprague-Dawley rat at 3 mg/kg, ip administered 60 mins prior to testing. It is filed as ADME, organism-based. The following applies: in vivo, 1 h.
The target in series [20] is T4, 5-hydroxytryptamine receptor 7 (Homo sapiens, UniProt P34969). Briefly: Displacement of [3H]LSD from recombinant human 5-HT7R after 120 mins by scintillation counting method.
T4 sequence (P34969 whole entry): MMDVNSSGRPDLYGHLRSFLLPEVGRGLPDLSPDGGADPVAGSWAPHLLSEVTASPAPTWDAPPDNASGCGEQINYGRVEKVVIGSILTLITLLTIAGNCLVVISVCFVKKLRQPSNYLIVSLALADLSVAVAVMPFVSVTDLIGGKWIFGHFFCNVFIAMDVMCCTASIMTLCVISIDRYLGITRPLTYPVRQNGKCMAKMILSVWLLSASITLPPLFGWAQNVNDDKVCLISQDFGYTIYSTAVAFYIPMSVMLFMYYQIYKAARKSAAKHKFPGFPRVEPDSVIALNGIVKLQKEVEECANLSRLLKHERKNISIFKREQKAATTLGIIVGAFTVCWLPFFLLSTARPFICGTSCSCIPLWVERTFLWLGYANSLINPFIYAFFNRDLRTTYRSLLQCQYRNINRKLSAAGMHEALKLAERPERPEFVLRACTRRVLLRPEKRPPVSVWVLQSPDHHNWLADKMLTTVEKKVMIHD
Series [21] addresses Alpha-2C adrenergic receptor (Homo sapiens) (UniProt P18825). Briefly: Displacement of [3H]-RX 821002 from human adrenergic alpha2C receptor expressed in CHO cells at 10^-6 M after 60 mins by scintillation counting method relative to control. The format is cell-based. A general note: Loss of bound radioactivity is the signal in a displacement assay; it reports binding, not function.

For series [22], the target named is T2, 5-hydroxytryptamine receptor 1A (Homo sapiens). Put plainly: Displacement of [3H]-WAY100635 from recombinant full-length human 5-HT1AR expressed in CHO cells at 10^-6 M after 120 mins by scintillation counting method relative to control. It is filed as cell-based.
The target in series [23] is 5-hydroxytryptamine receptor 1B (Cricetulus griseus) (UniProt P46636). Put plainly: Antagonist activity at 5-HT1BR in CHO cells assessed as inhibition of serotonin-induced response. The format is functional, cell-based.
Sequence of 5-hydroxytryptamine receptor 1B (Cricetulus griseus) (P46636 whole entry): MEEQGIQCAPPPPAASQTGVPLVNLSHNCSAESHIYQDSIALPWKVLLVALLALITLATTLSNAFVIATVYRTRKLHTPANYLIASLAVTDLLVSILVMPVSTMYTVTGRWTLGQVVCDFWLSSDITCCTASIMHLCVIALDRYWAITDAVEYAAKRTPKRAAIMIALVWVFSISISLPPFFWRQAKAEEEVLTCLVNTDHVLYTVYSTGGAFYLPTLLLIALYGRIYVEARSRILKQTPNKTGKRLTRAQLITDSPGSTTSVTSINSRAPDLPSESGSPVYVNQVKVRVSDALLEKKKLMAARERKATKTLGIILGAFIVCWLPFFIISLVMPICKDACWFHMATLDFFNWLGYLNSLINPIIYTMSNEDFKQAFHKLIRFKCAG
The subject of series [24] is Rattus norvegicus. Briefly: Toxicity in Wistar rat assessed as increase in prolactin level at 1 to 3 mg/kg, po after 60 mins by ELISA. The following applies: in vivo, 1 h. The format is organism-based. A general note: An ELISA detects its analyte on a solid surface through an enzyme-linked reagent.
For series [25], the target named is T2, 5-hydroxytryptamine receptor 1A (Homo sapiens). Put plainly: Antagonist activity at human 5-HT1AR expressed in mouse BA/F3 cells assessed as inhibition of serotonin-induced calcium flux by fluorimetric method. It is filed as functional, cell-based.
In series [26] the target is T4, 5-hydroxytryptamine receptor 7. Briefly: Antagonist activity at human 5-HT7R expressed in CHO-K1 cells assessed as inhibition of serotonin-induced cAMP accumulation after 30 mins by chemiluminescence-based assay. The format is functional, cell-based.
Series [27] relates to Cavia porcellus. Put plainly: Cardiotoxicity in guinea pig assessed as QT prolongation at 10 mg/kg, ip. The format is toxicity, organism-based. The following applies: in vivo.
Series [28] in a line: Toxicity in ip dosed Sprague-Dawley rat assessed as induction of catalepsy measured every 30 mins up to 240 mins by bar test. The conditions noted are these: Sprague-Dawley, in vivo. It is filed as organism-based.
Series [29] addresses T3, 5-hydroxytryptamine receptor 6. Briefly: biochemical.
Description: Displacement of [3H]-LSD from human 5-HT6R expressed in HEK293 cell membranes after 1 hr at 37 degC by microbeta counting method

T1 sequence (P28223 whole entry): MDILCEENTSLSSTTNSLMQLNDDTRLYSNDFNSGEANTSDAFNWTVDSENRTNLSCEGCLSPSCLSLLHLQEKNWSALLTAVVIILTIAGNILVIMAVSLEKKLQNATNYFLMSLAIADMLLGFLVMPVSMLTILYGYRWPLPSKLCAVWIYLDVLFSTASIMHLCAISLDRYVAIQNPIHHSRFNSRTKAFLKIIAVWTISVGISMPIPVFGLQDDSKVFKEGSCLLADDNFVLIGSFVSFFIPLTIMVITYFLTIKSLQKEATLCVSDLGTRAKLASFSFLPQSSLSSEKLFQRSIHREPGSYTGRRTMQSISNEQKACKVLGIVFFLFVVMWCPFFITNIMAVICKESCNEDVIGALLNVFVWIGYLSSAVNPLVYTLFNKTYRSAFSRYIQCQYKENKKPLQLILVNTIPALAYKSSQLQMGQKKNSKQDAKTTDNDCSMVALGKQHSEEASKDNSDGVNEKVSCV
Sequence of D(2) dopamine receptor (Homo sapiens) (P14416 whole entry): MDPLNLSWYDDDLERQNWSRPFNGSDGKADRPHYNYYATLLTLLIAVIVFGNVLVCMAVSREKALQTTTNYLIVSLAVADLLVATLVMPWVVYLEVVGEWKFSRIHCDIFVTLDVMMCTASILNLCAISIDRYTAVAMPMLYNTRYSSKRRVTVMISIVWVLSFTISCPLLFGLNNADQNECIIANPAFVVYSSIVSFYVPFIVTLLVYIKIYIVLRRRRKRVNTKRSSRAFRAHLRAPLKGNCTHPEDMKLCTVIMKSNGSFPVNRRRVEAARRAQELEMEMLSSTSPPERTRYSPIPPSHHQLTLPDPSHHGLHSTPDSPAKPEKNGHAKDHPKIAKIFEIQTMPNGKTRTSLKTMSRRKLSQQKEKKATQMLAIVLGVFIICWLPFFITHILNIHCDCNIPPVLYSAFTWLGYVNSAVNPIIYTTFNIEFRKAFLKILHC
Sequence of Alpha-2C adrenergic receptor (Homo sapiens) (P18825 whole entry): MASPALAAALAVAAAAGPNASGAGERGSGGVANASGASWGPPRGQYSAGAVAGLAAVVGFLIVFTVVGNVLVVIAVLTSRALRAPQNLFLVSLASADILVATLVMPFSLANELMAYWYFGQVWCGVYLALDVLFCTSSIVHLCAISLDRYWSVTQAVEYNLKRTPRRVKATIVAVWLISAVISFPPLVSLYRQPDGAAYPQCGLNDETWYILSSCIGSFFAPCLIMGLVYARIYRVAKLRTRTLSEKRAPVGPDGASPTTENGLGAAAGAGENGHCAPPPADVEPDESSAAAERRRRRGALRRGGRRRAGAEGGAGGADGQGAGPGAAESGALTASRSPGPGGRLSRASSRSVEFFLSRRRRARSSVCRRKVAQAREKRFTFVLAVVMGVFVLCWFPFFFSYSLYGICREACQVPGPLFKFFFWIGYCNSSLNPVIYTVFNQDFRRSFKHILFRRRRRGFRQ

As usually defined, the Ki is a measure of affinity in units of concentration, obtained from inhibition or displacement. As usually defined, the inhibition is the share of the control response that was lost under treatment. What is called IC50 is the concentration at which inhibition is half-maximal. In general, Kb refers to the affinity of an antagonist, worked out from how it opposes an agonist. Regarding `O=S(=O)(c1cncc2ccccc12)N1CCC[C@H]1CCN1CCN(c2cccc3sccc23)CC1`, the values for the Ki in series [1] and in [20] were 9 nM and 19 nM, respectively. Besides, the inhibition is 100% in series [2]; 80% in [3]; 23% in series [4]; 92% in series [5]; 73% in series [6]; 99% in series [21]. The inhibition in [22] turned out to be 100%. Besides, in series [7], the concentration at 0.25 h amounted to 188 nM. Also, the Time in the series on Cavia porcellus [8] amounted to 127.4 ms; in the series on Cavia porcellus [9] it was 125.2 ms; in the series on Cavia porcellus [10], 62.8 ms; in the series with Cavia porcellus [11] it was 63.4 ms; in the series on Cavia porcellus [12], 30.8 ms; with Cavia porcellus [13] it was 31.6 ms. For the same molecule, the Time in the series with Cavia porcellus [14] was determined as 30.8 ms; with Cavia porcellus [15], 32 ms. Also, the Activity result in the series on Rattus norvegicus [16], in the series on Rattus norvegicus [19] and in the series with Rattus norvegicus [24] was “Non-Toxic” each time. Also, the IC50 on Cytochrome P450 1A2 is above 100000 nM. Moreover, in series [17], the MTD at 0.5 h is 3 mg/kg. The minimal effective dose in the series on Rattus norvegicus [18] stood at 1 mg/kg. In series [23], the antagonist dissociation constant (Kb) was found to be 210 nM.
As to `O=S(=O)(c1cncc2ccccc12)N1CCC[C@H]1CCN1CCN(c2nsc3ccccc23)CC1`, the inhibition constant (Ki) in series [1] was 13 nM; in series [29], 313 nM. The Kb in series [25] worked out at 11 nM; in series [26] it was 2.5 nM. In series [3], the inhibition is 87%. In series [7], this molecule gave a concentration at 0.25 h of 249 nM. For the same molecule, the Time in the series with Cavia porcellus [8] turned out to be 121.8 ms; in the series on Cavia porcellus [9], 125.4 ms; with Cavia porcellus [10], 58.8 ms; in the series with Cavia porcellus [11], 63.2 ms; in the series on Cavia porcellus [12], 25.4 ms; in the series with Cavia porcellus [13], 26 ms. The Time in the series with Cavia porcellus [14] was found to be 27.8 ms; in the series with Cavia porcellus [15], 26 ms. Also, the Activity entry with Cavia porcellus [27], with Rattus norvegicus [16] and in the series on Rattus norvegicus [19] was “Non-Toxic” throughout. For the same molecule, the IC50 on Cytochrome P450 1A2 is above 100000 nM. Further, the MTD at 0.5 h in [17] came out at 3 mg/kg. For the same molecule, the MTD in series [28] was 30 mg/kg.
